Measured values reported in PMC3626250, “Effects of Borneol on Pharmacokinetics and Tissue Distribution of Notoginsenoside R1 and Ginsenosides Rg1 and Re in Panax notoginseng in Rabbits” (Journal of Analytical Methods in Chemistry, 2013).
Read-outs that look alike come from different tables or passages of the source. Marks after values point to notes of the source that are not given here.

Key:
[1] = Pharmacokinetics study in rabbits after oral Panax notoginseng extract with or without Borneol (plasma, SPE-HPLC-MS); type: in vivo, New Zealand rabbits; conditions: for Cmax / Tmax / CL/F / half-life / AUC(0-inf) / AUC(0-t): New Zealand, rabbit, plasma; for CL/F: read-out: CL/F; for half-life: read-out: t 1/2β; for AUC(0-inf) / AUC(0-t): po
Procedure: Liquid chromatography was carried out on an Agilent 1100 HPLC system with an auto sampler, a quaternary pump and a vacuum degasser (Waldoboro, Frankfurt, Germany). Operations were controlled by Agilent Chemstation 4.2 software (Littleforts, Philadelphia, USA). Separations were achieved on a reversed-phase HPLC column (Zorbax SB-C18 150 × 2.1 mm, 5.0 μm particle size). A solution of acetonitrile and water (V : V, 20 : 80) with 0.1% (V : V) ammonium formate was used as the mobile phase. The flow rate was set at 0.3 mL·min^−1 and the column temperature was 25°C. Under these conditions, NGR1, GRg1, and GRe in plasma samples were separated efficiently without any interferences.
MS^n detection was performed on an Agilent SL trap MS system (Waldoboro, Frankfurt, Germany). The ion source-dependent (electrospray ionization) conditions were the same for all analyses with a spraying voltage of −4500 V in the negative ion mode. The pressure of the nebulizing gas (nitrogen) was set at 35 p.s.i. The flow rate of the drying gas (nitrogen) was set at 7.0 L·min^−1 with the temperature of 325°C. The collision gas (He) for the MS^n mode at trap was set at flow of 4 (instrument unit). The voltage of the capillary was set at 4000 V, and its end plate offset was −500 V. Scan range was from 500 to 1500 m/z.
(§1) Frozen plasma and tissue samples were thawed in a water bath at 37°C and were then vortexed followed by centrifuging at 5000 r·min^−1 for 5 min. An aliquot of 1.0 mL of the supernatant from each sample was loaded onto C18 Bond Elute Solid phase extraction (SPE) cartridges (1000 mg, 1 cc reservoir, Varian, Harbor City, CA, USA) pretreated with 2.0 mL hexane, isopropanol, methanol, and water, sequentially. The SPE cartridges were then washed with 1.0 mL water, 20% methanol/water solution, 40% methanol/water solution, and 60% methanol/water solution, sequentially. Finally, analytes were eluted twice with 1.0 mL of 70% methanol/water solution. The eluant was evaporated to dryness under nitrogen. The residues were then reconstituted in 1.0 mL mobile phase. An aliquot of 10 μL was injected into the LC-MS system.
Eighteen rabbits were randomly divided into three groups of 6 subjects and were orally given 3.0 mL·kg^−1 normal saline, 3.0 mL·kg^−1 Panax notoginseng extract, and 3.0 mL·kg^−1 Panax notoginseng extract combined with Borneol, respectively. Plasma samples were collected in heparinized tubes from the central ear artery at 0.0, 5.0, 10.0, 20.0, 30.0, 45.0, 60.0, 75.0, 90.0, 120.0, 180.0, 300.0 and 480.0 min after dose. After each sampling, the same volume of 0.9% saline solution was injected from the ear vein to compensate the loss of blood. The plasma obtained was frozen at −70°C for storage and was processed prior to analysis with the proposed method as described in Section 2.6.
Statistical analysis of the biological data was performed using the Student's t-test. The drug analysis system 2.0 (DAS 2.0, T.C.M., Shanghai, China) was used to calculate the pharmacokinetic parameters, such as the area under curve (AUC), the maximum plasma concentration (C max), the time needed to reach the maximum plasma concentration (t max) and the half-life of absorption, and distribution and elimination (t 1/2Ka, t 1/2α, t 1/2β).

[2] = Tissue distribution study in rabbits after oral Panax notoginseng extract with or without Borneol; type: in vivo, New Zealand rabbits; conditions: New Zealand, rabbit; for Kp at 1 h: oral, Borneol combined with Panax notoginseng; for concentration at 0.5 h / concentration at 1 h / concentration at 3 h: po; for concentration at 3 h: 3 mL·kg^−1, 3.0 h
Procedure: as §1
One group of rabbits (n = 18) was orally administered a dose of 3.0 mL·kg^−1 Panax notoginseng extract, while another group of rabbits (n = 18) was orally given 3.0 mL·kg^−1 Panax notoginseng extract combined with Borneol. At 0.5, 1, and 3 h after administration, blood samples were collected from the central ear artery of six rabbits from each group, and the heart, liver, lung, kidney, and brain were immediately removed after animals were sacrificed by decapitation. An accurately weighed amount of tissue (1 g) was collected to be rinsed, dried, minced, and homogenized (400 r·min^−1) in normal saline (1.5 mL). All of the samples were stored at −70°C and were processed prior to analysis with the proposed method as described in Section 2.6.

[3] = oral 3.0 mL·kg^−1 Panax notoginseng extract
[4] = oral 3.0 mL·kg^−1 Panax notoginseng extract combined with Borneol

Compound: CC(C)=CCC[C@](C)(O[C@@H]1O[C@H](CO)[C@@H](O)[C@H](O)[C@H]1O)[C@H]1CC[C@]2(C)[C@@H]1[C@H](O)C[C@@H]1[C@@]3(C)CC[C@H](O)C(C)(C)[C@@H]3[C@@H](O[C@@H]3O[C@H](CO)[C@@H](O)[C@H](O)[C@H]3O)C[C@]12C [GRg1, ginsenoside Rg1]
- Cmax [1, 3]: 2360 ± 150 ng/mL
- Tmax [1, 3]: 30 min
- Cmax [1, 4]: 2870 ± 340 ng/mL
- Tmax [1, 4]: 30 min
- CL/F [1, 4]: 119 ± 40 mL/min/kg
- half-life [1, 4]: 69.3 ± 10.7 min
- CL/F [1, 3]: 123 ± 67 mL/min/kg
- half-life [1, 3]: 69.3 ± 12 min
- AUC(0-inf) [1, 3]: 10900 ng·h/mL
- AUC(0-t) [1, 3]: 8250 ng·h/mL
- AUC(0-inf) [1, 4]: 27900 ng·h/mL
- AUC(0-t) [1, 4]: 9090 ng·h/mL
- K 10 [1, 3]: 0.005 ± 0.001 min⁻¹
- K 12 [1, 3]: 0.011 ± 0.003 min⁻¹
- K 21 [1, 3]: 0.012 ± 0.003 min⁻¹
- K a [1, 3]: 0.039 ± 0.004 min⁻¹
- T lag [1, 3]: 0 ± 0 min
- V/F [1, 3]: 24.5 ± 4.5 L/kg
- t 1/2Ka [1, 3]: 17.8 ± 2.4 min
- t 1/2α [1, 3]: 38.5 ± 2.5 min
- α [1, 3]: 0.018 ± 0.005 min⁻¹
- β [1, 3]: 0.010 ± 0.007 min⁻¹
- K 10 [1, 4]: 0.003 ± 0.00 min⁻¹
- K 12 [1, 4]: 0.025 ± 0.005** min^−1
- K 21 [1, 4]: 0.013 ± 0.001 min⁻¹
- K a [1, 4]: 0.051 ± 0.010* min^−1
- T lag [1, 4]: 1.25 ± 0.34 min
- V/F [1, 4]: 35.9 ± 8.7 L/kg
- t 1/2Ka [1, 4]: 13.5 ± 4.6 min
- t 1/2α [1, 4]: 22.3 ± 3.1 min
- α [1, 4]: 0.031 ± 0.011 min⁻¹
- β [1, 4]: 0.010 ± 0.001 min⁻¹
- Kp at 1 h ([2]; brain, peak levels at 1.0 h, read-out: level in brain, fold higher than the plasma concentrations): 11.8
- concentration at 0.5 h ([2]; brain, 3 mL·kg^−1, 0.5 h, oral Panax notoginseng with Borneol, read-out: Concentration in brain): 20600 ± 1360 ng/g
- concentration at 0.5 h ([2]; brain, 3 mL·kg^−1, 0.5 h, oral Panax notoginseng, read-out: Concentration in brain): 750 ± 110 ng/g
- concentration at 1 h ([2]; brain, 3 mL·kg^−1, 1.0 h, oral Panax notoginseng, read-out: Concentration in brain): 910 ± 890 ng/g
- concentration at 3 h ([2]; brain, oral Panax notoginseng with Borneol, read-out: Concentration in brain): 17900 ± 2600 ng/g
- concentration at 3 h ([2]; brain, oral Panax notoginseng, read-out: Concentration in brain): 570 ± 200 ng/g
- concentration at 1 h ([2]; brain, 1.0 h, oral Panax notoginseng with Borneol, read-out: Concentration in brain): 25700 ± 2690 ng/g
- Kp at 1 h ([2]; heart, peak levels at 1.0 h, read-out: level in heart, fold higher than the plasma concentrations): 12.4
- concentration at 0.5 h ([2]; heart, 3 mL·kg^−1, 0.5 h, oral Panax notoginseng with Borneol, read-out: Concentration in heart): 22600 ± 360 ng/g
- concentration at 0.5 h ([2]; heart, 3 mL·kg^−1, 0.5 h, oral Panax notoginseng, read-out: Concentration in heart): 2210 ± 760 ng/g
- concentration at 1 h ([2]; heart, 3 mL·kg^−1, 1.0 h, oral Panax notoginseng, read-out: Concentration in heart): 2940 ± 240 ng/g
- concentration at 3 h ([2]; heart, oral Panax notoginseng with Borneol, read-out: Concentration in heart): 19100 ± 1160 ng/g
- concentration at 3 h ([2]; heart, oral Panax notoginseng, read-out: Concentration in heart): 1530 ± 450 ng/g
- concentration at 1 h ([2]; heart, 1.0 h, oral Panax notoginseng with Borneol, read-out: Concentration in heart): 27000 ± 310 ng/g
- Kp at 1 h ([2]; kidney, at 1.0 h, read-out: level in kidney, fold higher than the plasma concentrations): 7.77
- concentration at 0.5 h ([2]; kidney, 3 mL·kg^−1, 0.5 h, oral Panax notoginseng with Borneol, read-out: Concentration in kidney): 27540 ± 170 ng/g
- concentration at 0.5 h ([2]; kidney, 3 mL·kg^−1, 0.5 h, oral Panax notoginseng, read-out: Concentration in kidney): 4050 ± 260 ng/g
- concentration at 1 h ([2]; kidney, 3 mL·kg^−1, 1.0 h, oral Panax notoginseng, read-out: Concentration in kidney): 3670 ± 380 ng/g
- concentration at 3 h ([2]; kidney, oral Panax notoginseng with Borneol, read-out: Concentration in kidney): 10200 ± 2770 ng/g
- concentration at 3 h ([2]; kidney, oral Panax notoginseng, read-out: Concentration in kidney): 3030 ± 230 ng/g
- concentration at 1 h ([2]; kidney, 1.0 h, oral Panax notoginseng with Borneol, read-out: Concentration in kidney): 16900 ± 810 ng/g
- Kp at 1 h ([2]; liver, peak levels at 1.0 h, read-out: level in liver, fold higher than the plasma concentrations): 27.1
- concentration at 0.5 h ([2]; liver, 3 mL·kg^−1, 0.5 h, oral Panax notoginseng with Borneol, read-out: Concentration in liver): 50100 ± 1950 ng/g
- concentration at 0.5 h ([2]; liver, 3 mL·kg^−1, 0.5 h, oral Panax notoginseng, read-out: Concentration in liver): 8480 ± 530 ng/g
- concentration at 1 h ([2]; liver, 3 mL·kg^−1, 1.0 h, oral Panax notoginseng, read-out: Concentration in liver): 8850 ± 510 ng/g
- concentration at 3 h ([2]; liver, oral Panax notoginseng with Borneol, read-out: Concentration in liver): 37800 ± 3430 ng/g
- concentration at 3 h ([2]; liver, oral Panax notoginseng, read-out: Concentration in liver): 6180 ± 590 ng/g
- concentration at 1 h ([2]; liver, 1.0 h, oral Panax notoginseng with Borneol, read-out: Concentration in liver): 59000 ± 3740 ng/g
- Kp at 1 h ([2]; lung, peak levels at 1.0 h, read-out: level in lung, fold higher than the plasma concentrations): 8.17
- concentration at 0.5 h ([2]; lung, 3 mL·kg^−1, 0.5 h, oral Panax notoginseng with Borneol, read-out: Concentration in lung): 15100 ± 3240 ng/g
- concentration at 0.5 h ([2]; lung, 3 mL·kg^−1, 0.5 h, oral Panax notoginseng, read-out: Concentration in lung): 14300 ± 430 ng/g
- concentration at 1 h ([2]; lung, 3 mL·kg^−1, 1.0 h, oral Panax notoginseng, read-out: Concentration in lung): 15300 ± 640 ng/g
- concentration at 3 h ([2]; lung, oral Panax notoginseng with Borneol, read-out: Concentration in lung): 12300 ± 1460 ng/g
- concentration at 3 h ([2]; lung, oral Panax notoginseng, read-out: Concentration in lung): 11900 ± 710 ng/g
- concentration at 1 h ([2]; lung, 1.0 h, oral Panax notoginseng with Borneol, read-out: Concentration in lung): 17800 ± 1250 ng/g
- concentration at 0.5 h ([2]; plasma, 3 mL·kg^−1, 0.5 h, oral Panax notoginseng, read-out: Concentration in plasma): 1970 ± 160 ng/mL
- concentration at 1 h ([2]; plasma, 3 mL·kg^−1, 1.0 h, oral Panax notoginseng, read-out: Concentration in plasma): 1990 ± 60 ng/mL
- concentration at 3 h ([2]; plasma, oral Panax notoginseng with Borneol, read-out: Concentration in plasma): 920 ± 10 ng/mL
- concentration at 3 h ([2]; plasma, oral Panax notoginseng, read-out: Concentration in plasma): 980 ± 10 ng/mL
- concentration at 0.5 h ([2]; plasma, 0.5 h, oral Panax notoginseng with Borneol, read-out: Concentration in plasma): 2870 ± 60 ng/mL
- concentration at 1 h ([2]; plasma, 1.0 h, oral Panax notoginseng with Borneol, read-out: Concentration in plasma): 2180 ± 90 ng/mL
